Test system: ACE2
Test: Western blot analysis of amount of ACE2 protein expressed in HepG2 cells
Format: cell-based, human
Details: compared to control (untreated)
Experimental: (i) Human liver cancer-derived cell strain HepG2 was cultured for 2 days with Dulbecco's modified Eagle medium (DMEM) comprising 10% fetal bovine serum (FBS) under 5% CO2.
(ii) After 2 days, 5-aminolevulinic acid hydrochloride salt (ALA) was supplemented to the DMEM comprising FBS to a final concentration of 1 mM, and the cells of (i) were cultured in said medium at 37° C. for 48 hours. Note that those without any supplements was set as the control.
(iii) After 48 hours, the cell supernatant was discarded, the cells were washed with PBS, and then Lysis buffer A (+) (50 mM Tris-HCl (pH 7.4), 20 mM N-methylmaleimide, 1 mM DTT, 1% (v/v) Triton X-100, and Protease inhibitor cocktail) was added, and the cell lysate was collected. Homogenization and centrifugation (3,000 rpm, 10 minutes, 4 °C) were then performed, and the residue was removed. A part of the cell lysate collected was quantified for proteins with the Bradford method, and the remainder was mixed with SDS sample buffer (50 mM Tris-HC1, pH 6.8, 2% SDS, 2.5% mercaptoethanol, 10% glycerol, 0.01% bromophenol blue), and stored frozen at −30° C. The prepared sample was subjected to 7.5% SDS-polyacrylamide electrophoresis, the 7.5% SDS-polyacrylamide gel after electrophoresis was transferred to a membrane, and the transfer was confirmed with
Ponceau S solution. After the transfer was confirmed, Western blot analysis employing rabbit anti-human ACE2 antibody (Abcom, ab108252) and HRP-labeled anti-rabbit IgG secondary antibody (Cell Signaling Technology, 7074S) was performed by conventional means.
As internal standards, each sample was subjected to 7.5% SDS-polyacrylamide electrophoresis, the 7.5% SDS-polyacrylamide gel after electrophoresis was transferred to a membrane, and the transfer was confirmed with Ponceau S solution. After the transfer was confirmed, Western blot analysis employing mouse anti-human actin antibody (MP biomedicals, 691001) and HRP-labeled anti-mouse IgG secondary antibody (Cell Signaling Technology, 7076S) was performed by conventional means. […]

Cl.NCC(=O)CCC(=O)O [ALA, 5-aminolevulinic acid hydrochloride salt]
amount of ACE2 protein expressed (Experiment 1, ALA 1 mM, 48 hours): significantly reduced | amount of ACE2 protein expressed (Experiment 2, ALA 1 mM): reduced

sodium ferrous citrate [SFC]
amount of ACE2 protein expressed (Experiment 2, SFC only 0.5 mM): no reduction
